From US20220104481A1, “CRYOPRESERVATION OF STEM CELLS” (TiGenix, S.A.U., priority 2019, published 2022)
“Also recorded” adds a separate entry of the source.

Key:
Format in all cases: cell-based, human
[1] = test system: CD206 and CD163 on mature dendritic cells; assay: Surface expression of phagocytic receptors CD206 and CD163 by mDC co-cultured with ASCs (flow cytometry); settings: NAC-pretreated ASCs, donors A and B (FIGS. 13, 14)
Procedure: (§1) After differentiation in monoculture or co-culture in vitro (the differentiation conditions, including the cytokines used, concentrations and times of differentiation, are provided in Example 7), macrophages and mDC were harvested using 0.05% trypsin-EDTA for 10 minutes at 37° C., after supernatants were collected and frozen for future cytokine and/or HPLC analysis. After mDC were counted, they were distributed into 96-well V bottom plates for staining (Nunc #249570). Cells were incubated in Blue MACS buffer with 1% human serum for 15 minutes on ice, to block Fcγ receptor-mediated nonspecific antibody binding. Subsequently, cells were stained for 20 minutes on ice with the following antibody mixes (staining in 50 μL of 1:10 antibody dilution; except for CD64, which was 1:20 dilution): Cell viability was assessed by addition of 5 μL of 7AAD per well and staining for 10 minutes on ice, and samples were acquired in a BD Fortessa cytometer. Results were analysed in FSC Express software.

[2] = test system: CD14 and CD1a on mature dendritic cells; assay: Surface expression of CD14 and CD1a by mDC co-cultured with ASCs (flow cytometry); settings: NAC-pretreated ASCs, donors A and B (FIG. 15)
Procedure: as §1, with “software. The effect of NAC pretreatment (according to Example 2) on thawed ASC mediated effects on the surface expression of CD14 and CD1a on mature dendritic cells was also measured by flow cytometry. mDC are CD14-CD1a+. CD1a is the antigen-presenting molecule, and mediates the presentation of antigens by mDC to other cells of the immune system to activate their response. […]” for “software.”

ASCs [3] = assay: ASC proliferation assay: viable cell density (trypan blue count) after thaw of pretreated ASCs; settings: for number of viable cells: ASCs pretreated with 6 mM NAC before freezing
Procedure: ASCs from donor A were thawed by warming the vials in a 37° C. bath and diluting the freezing medium containing DMSO with fresh complete DMEM (DMEM/F-12 media—GlutaMAX™-I, Gibco, supplemented with 100 μg/mL penicillin/streptomycin and 10% FBS). Cells were centrifuged at 450 g for 6 minutes at room temperature to eliminate leftover DMSO and plated in T-175 flasks at 20.000 cells/cm^2 in complete DMEM. 24 hours post-thaw, the cells were treated with the suitable concentrations of the compounds indicated in the table below for 24 hours: Following the pretreatment step, the medium was removed, the cells were washed with PBS and trypsinized using trypsin-EDTA 0.25% (ThermoFisher) for 8 minutes at 37° C. After trypsin inactivation with complete DMEM, cells were harvested and centrifuged prior to resuspension in freezing medium (FBS with 10% DMSO), and frozen into 500,000 or 1 million cells per vial and stored in liquid nitrogen for further use. Specifically, the cells were frozen at −80° C. for 24 hours in a Cool Cell® device (BioCision) and then transferred to a liquid nitrogen storage container. All experiments were performed in incubators and 37° C., 5% CO2. ASCs pretreated with NAC according to the methods described in Example 2 from donor A or donor B final drug substance (FDS) were thawed by warming the vials in a 37° C. bath and quickly diluting the freezing medium containing DMSO (FBS with 10% DMSO) with fresh complete DMEM. Cells were centrifuged at 450 g for 6 minutes at room temperature to eliminate leftover DMSO, and plated in P6-well plates (Falcon #353046) in triplicates at […] in 5 mL of complete DMEM per well. Cells were washed with 1×PBS and trypsinized using trypsin-EDTA 0.25% (ThermoFisher) for 8 minutes at 37° C. After trypsin inactivation using complete DMEM, cells were harvested, centrifuged and resuspended in fresh DMEM; triplicate wells were unified as a single sample for counting purposes. Cells were counted in triplicates at 24 hours, 96 hours and 7 days after plating using an Invitrogen Countess Automated Cell Counter (Invitrogen) and adding trypan blue as a viability stain (FIG. 4A). The calculation of cell density was done using the count of viable ASC (negative for trypan blue) per surface unit (cm^2).

ASCs [4] = assay: Post-thaw treatment with NAC in plating medium: cell growth after thawing
Procedure: A 600 mM stock of NAC (SIGMA) was prepared in Milli-Q water (Millipore). This stock was used for pre-treatment and post-treatment by adding directly 50 μL stock solution per well into 5 mL of medium, making a final concentration of 6 mM. For 2 mM, only 16.7 μL were added per well, and in the case of 12 mM, 100 μL of stock were added. DMSO was used as the vehicle for sc79 and LY294. The effect of post-thaw treatment with different concentrations of NAC (post-thaw NAC treatment) on cell growth was also studied. ASCs were frozen (without NAC pretreatment), thawed as discussed above, and then treated with three different NAC concentrations (2, 6 and 12 mM) in complete DMEM prior to plating, and the cell numbers at day 4, 11 and 14 were analysed.

SMILES: CC(=O)N[C@@H](CS)C(=O)O [NAC, N-Acetylcysteine]
- ASC-mediated upregulation of CD206 and CD163 on mDC [1]: this upregulation was intact; also recorded: did not alter these effects
- ASC-induced formation of CD14+CD1a- regulatory mDC population [2]: does not alter the ability of thawed ASCs to induce the formation of this mDC regulatory population; also recorded: did not modify this effect
- number of cells counted versus non-treated control (ASCs [3]; 6 mM NAC pretreatment, 24 hours and 4 days post-thaw): increased the number of cells counted at 24 hours and 4 days
- cell number by cell density versus non-treated (ASCs [3]; 6 mM NAC pretreatment, 24 hours post-seeding after thaw (FIG. 3)): increased cell numbers
- cell numbers versus non-treated, two donors (ASCs [3]; 6 mM NAC pretreatment, donor A and donor B, from 24 hours post-seeding, maintained for a week (FIG. 5)): increase in cell numbers
- post-thaw recovery (viable adhered cell number over seeding density) (ASCs [3]; ASCs pretreated with 6 mM NAC (FIG. 4A), non-treated cells not recovered at 1 day): recovered after 1 day of post-thaw culture
- number of viable cells (ASCs [3]; 1 day of culture post-thaw (FIG. 4A)): ~5,000 cells/cm^2
- number of viable cells (ASCs [3]; 4 days of culture post-thaw (FIG. 4A)): ~12,500 cells/cm^2
- improvement of growth rate relative to non-treated cells (ASCs [3]; ASCs pretreated with 6 mM NAC, between days 1 and 4 of post-thaw culture): about 1.25 fold
- growth rate (ASCs [3]; ASCs pretreated with 6 mM NAC, between days 1 and 4 of post-thaw culture (FIG. 4A)): approximately 2500 cells/cm^2/day
- number of viable cells (ASCs [4]; post-thaw treatment with 2 mM NAC, 7 days of culture (FIG. 6)): ~6,300 cells/cm^2
- number of viable cells (ASCs [4]; post-thaw treatment with 2 mM NAC, 11 days of culture (FIG. 6)): ~18,700 cells/cm^2
- number of viable cells (ASCs [4]; post-thaw treatment with 2 mM NAC, 14 days of culture (FIG. 6)): ~18,300 cells/cm^2
- growth rate (ASCs [4]; post-thaw treatment with 2 mM NAC, between days 7 and 11 (FIG. 6)): approximately 3100 cells/cm^2/day
- cell number versus non-treated (ASCs [4]; post-thaw treatment with 2 mM NAC, sustained up to 2 weeks in culture (FIG. 6)): increase in cell number
- cell density versus non-treated (ASCs [4]; post-thaw treatment with 6 mM NAC (FIG. 6)): lower cell densities
- cell density versus non-treated (ASCs [4]; post-thaw treatment with 12 mM NAC (FIG. 6)): lower cell densities
